Test results as given in the NIST ThermoML archive (doi:10.1021/je7001013).

What was measured:
[1] = refractive index (Na D-line) (dimensionless); settings: 101.33 kPa, Liquid
[2] = xn = mol fraction of the nth substance listed
[3] = refractive index (Na D-line) (dimensionless); xn = mol fraction of the nth substance listed; settings: 101 kPa, Liquid

CC(C)S(=O)C(C)C [2,2'-sulfinylbispropane]
Settings	surface tension liquid-gas [mN/m]
298.15 K	31.8
303.15 K	31.2
308.15 K	30.7
313.15 K	30.3
318.15 K	29.8
323.15 K	29.5
328.15 K	29.1

[1]
Settings	refractive index
298.15 K	1.4645
303.15 K	1.462
308.15 K	1.4595

CC(C)S(=O)C(C)C [2,2'-sulfinylbispropane] + O
Settings	refractive index, [3]	surface tension liquid-gas, [2] [mN/m]
298.15 K, x1 = 0.0087	1.3435	52.5
298.15 K, x1 = 0.0197	1.353	48.8
298.15 K, x1 = 0.0505	1.38	–
298.15 K, x1 = 0.0987	1.407	–
298.15 K, x1 = 0.4035	1.453	35.9
298.15 K, x1 = 0.6002	1.46	33.9
298.15 K, x1 = 0.7756	1.4625	32.6
298.15 K, x1 = 0.8899	1.4635	32.2
303.15 K, x1 = 0.0087	1.343	52.4
303.15 K, x1 = 0.0197	1.352	48.1
303.15 K, x1 = 0.0505	1.3785	42.9
303.15 K, x1 = 0.0987	1.406	–
303.15 K, x1 = 0.4035	1.451	34.6
303.15 K, x1 = 0.6002	1.4575	33.3
303.15 K, x1 = 0.7756	1.461	32.1
303.15 K, x1 = 0.8899	1.4625	31.7
308.15 K, x1 = 0.0087	1.342	51.5
308.15 K, x1 = 0.0197	1.3515	47.3
308.15 K, x1 = 0.0505	1.3775	41.8
308.15 K, x1 = 0.0987	1.404	35.1
308.15 K, x1 = 0.4035	1.448	34.1
308.15 K, x1 = 0.6002	1.456	32.7
308.15 K, x1 = 0.7756	1.459	31.5
308.15 K, x1 = 0.8899	1.4605	31.1
313.15 K, x1 = 0.0087	–	50.6
313.15 K, x1 = 0.0197	–	46.6
313.15 K, x1 = 0.0505	–	41.2
313.15 K, x1 = 0.0987	–	36
313.15 K, x1 = 0.4035	–	33.4
313.15 K, x1 = 0.6002	–	32.1
313.15 K, x1 = 0.7756	–	30.9
313.15 K, x1 = 0.8899	–	30.6
318.15 K, x1 = 0.0087	–	49.8
318.15 K, x1 = 0.0197	–	45.8
318.15 K, x1 = 0.0505	–	40.6
318.15 K, x1 = 0.0987	–	37
318.15 K, x1 = 0.4035	–	32.8
318.15 K, x1 = 0.6002	–	31.5
318.15 K, x1 = 0.7756	–	30.3
318.15 K, x1 = 0.8899	–	30
323.15 K, x1 = 0.0087	–	48.9
323.15 K, x1 = 0.0197	–	45
323.15 K, x1 = 0.0505	–	39.9
323.15 K, x1 = 0.0987	–	36.7
323.15 K, x1 = 0.4035	–	31.8
323.15 K, x1 = 0.6002	–	30.4
323.15 K, x1 = 0.7756	–	29.8
323.15 K, x1 = 0.8899	–	29.5
328.15 K, x1 = 0.0087	–	48
328.15 K, x1 = 0.0197	–	43.7
328.15 K, x1 = 0.0505	–	39.7
328.15 K, x1 = 0.0987	–	36.4
328.15 K, x1 = 0.4035	–	31
328.15 K, x1 = 0.6002	–	29.8
328.15 K, x1 = 0.7756	–	29.3
328.15 K, x1 = 0.8899	–	28.9
